# Test results: PMC8005870, “Membrane Lipid Requirements of the Lysine Transporter Lyp1 from Saccharomyces cerevisiae” (Journal of molecular biology, 2020)
# Biological target: T1, Lyp1 (Lyp1-GFP) (Saccharomyces cerevisiae, UniProt P32487)
# T1 construct: full-length Lyp1 with C-terminal TEV-GFP-His10 kept, expressed in Pichia pastoris SMD1163, DDM-solubilised, purified by IMAC and FSEC, reconstituted in proteoliposomes
# T1 sequence (P32487 1-611): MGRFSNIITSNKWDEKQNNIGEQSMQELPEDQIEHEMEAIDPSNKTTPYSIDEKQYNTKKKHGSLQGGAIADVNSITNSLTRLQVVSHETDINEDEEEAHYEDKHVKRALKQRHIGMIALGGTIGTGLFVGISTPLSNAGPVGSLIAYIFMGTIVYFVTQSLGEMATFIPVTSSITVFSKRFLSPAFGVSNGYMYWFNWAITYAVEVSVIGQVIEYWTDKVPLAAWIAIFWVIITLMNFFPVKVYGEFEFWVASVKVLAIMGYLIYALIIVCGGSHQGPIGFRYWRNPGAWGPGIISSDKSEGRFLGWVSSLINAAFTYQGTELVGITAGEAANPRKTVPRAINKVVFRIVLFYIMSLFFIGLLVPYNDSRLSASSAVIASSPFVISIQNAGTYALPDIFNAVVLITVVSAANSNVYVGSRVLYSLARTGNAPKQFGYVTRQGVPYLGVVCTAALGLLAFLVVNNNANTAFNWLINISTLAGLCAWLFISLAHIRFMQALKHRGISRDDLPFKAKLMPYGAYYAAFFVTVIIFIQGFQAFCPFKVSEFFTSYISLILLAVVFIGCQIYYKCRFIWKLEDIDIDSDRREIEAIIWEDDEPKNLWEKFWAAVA
# Test: lysine transport turnover versus mol% lipid in proteoliposomes
# Type: biochemical
# Conditions: proton motive force about -160 mV (valinomycin K+ diffusion potential plus acetate gradient), pH 6.0; defined lipid vesicles; POPS titrated in POPS/POPE/ergosterol vesicles; sigmoidal, cooperative lip
structure (smiles),measurement,value
"CCCCCCCC/C=C\CCCCCCCC(=O)O[C@H](COC(=O)CCCCCCCCCCCCCCC)COP(=O)(O)OC[C@H](N)C(=O)O [POPS, 1-palmitoyl-2-oleoyl-sn-glycero-3-phosphoserine]",lysine transport turnover versus mol% lipid in proteoliposomes,We found a sigmoidal relationship between Lyp1 activity and POPS concentration
